Laboratory results taken from patent US9333194B2, “Use of ansamycin antibiotics and method of screening novel angiogenesis inhibitor” (Japan Science & Technology Agency, priority 2002, dated 2016).

System: human retinal microvascular endothelial cells
Assay: Angiogenesis-inhibiting signals (mRNA quantification by real-time quantitative PCR)
Assay type: cell-based
Conditions: various concentrations; for angiogenesis-inhibiting signals (changes of gene expression levels): four hours incubation, FIG. 6; for mRNA amount of c-myc, integrin-αv, integrin-β3: FIG. 6 legend
Method: Human retinal microvascular endothelial cells were rendered to grow exponentially in the presence of serum/growth factors/angiogenesis-promoting factors, and various concentrations of rifampicin, rifamycin SV and 3-formyl rifamycin were added. After four hours-incubation, RNA was extracted and subjected to mRNA quantification of various genes using aforementioned LightCycler-based highly sensitive real-time quantitative PCR. A, B and C represent the quantification results of c-myc gene; D, E and F represent those of integrin-αv gene; G, H and I represent those of integrin-β3 gene. Further, A, D and G indicate the changes of mRNA levels after adding rifampicin; B, E and H indicate those after adding rifamycin SV; C, F and I indicate those after adding 3-formyl rifamycin.

In the case of `CO[C@H]1/C=C/O[C@@]2(C)Oc3c(C)c(O)c4c(O)c(c(C=O)c(O)c4c3C2=O)NC(=O)/C(C)=C\C=C\[C@H](C)[C@H](O)[C@@H](C)[C@@H](O)[C@@H](C)[C@H](OC(C)=O)[C@@H]1C` [3-formyl rifamycin], the “angiogenesis-inhibiting signals (changes of gene expression levels)” value is reported as “exhibit similar activity potently” and the “mRNA amount of c-myc, integrin-αv, integrin-β3” value is reported as “inhibited in a concentration-dependent manner”.

With `CO[C@H]1/C=C/O[C@@]2(C)Oc3c(C)c([O-])c4c(O)c(cc(O)c4c3C2=O)NC(=O)/C(C)=C\C=C\[C@H](C)[C@H](O)[C@@H](C)[C@@H](O)[C@@H](C)[C@H](OC(C)=O)[C@@H]1C.[Na+]` [rifamycin SV] the “angiogenesis-inhibiting signals (changes of gene expression levels)” value was “exhibit similar activity potently” and the “mRNA amount of c-myc, integrin-αv, integrin-β3” value was “inhibited in a concentration-dependent manner”.
